Literature values as cited in article PMC4512625, “Critical role of the SPAK protein kinase CCT domain in controlling blood pressure” (Human Molecular Genetics, 2015).

Columns and labels:
[1] = system: NKCC1 in the hypothalamic paraventricular nucleus; conditions: intracranial administration, spontaneously hypertensive rats
Text: The altered shape of the arterial pressure waveform in our […] mice (Fig. 5B) is consistent with increased vascular compliance and reduced wave reflection in the periphery as compared with the wild-type animals. This may be explained in part by a diminished cardiac output arising from possible reductions in cardiac contractility owing to loss of NKCC1 activity in the heart ([49]) (Fig. 2B) and the lower heart rates of the […] mice (Fig. 5A), because augmentation is negatively correlated with heart rate in humans ([50]). It has also been previously shown that […] ...

[2] = system: human OSR1 CCT domain, Leu473 to Ala; conditions: mutant versus wild type
Text: Consistent with this, mutation of Leu473 to Ala reduced binding of OSR1 to RFXI WNK4 peptide over 100-fold ([40]).

reduction of binding of OSR1 to RFXI WNK4 peptide by mutation of Leu473 to Ala [2] | Compound | heart rate [1] | sympathetic vasomotor tone [1]
– | CCCCNc1cc(C(=O)O)cc(S(N)(=O)=O)c1Oc1ccccc1 [bumetanide] | lower their heart rates | reduce sympathetic vasomotor tone
over 100 fold | GRFQVT [RFXI WNK4 peptide, RFXI motif-containing peptide derived from WNK4, complexed to the human OSR1 CCT domain] | – | –
